Laboratory results reported in ChEMBL document CHEMBL3046407, “Toxicity of monoterpenes against larvae and adults of Colorado potato beetle, Leptinotarsa decemlineata Say (Coleoptera: Chrysomelidae)” (2007).

How the values were obtained:
[1] = test system: Leptinotarsa decemlineata; experiment: Insecticidal activity against first-instar larval stage of Leptinotarsa decemlineata infested potato leaves assessed as mortality at 10 mg after 12 hr relative to control; type: functional
[2] = test system: Leptinotarsa decemlineata; type: functional, Instar larval stage
[3] = test system: Leptinotarsa decemlineata; experiment: Insecticidal activity against adult Leptinotarsa decemlineata infested potato leaves assessed as mortality at 20 mg after 96 hr relative to control; type: functional
[4] = test system: Leptinotarsa decemlineata; experiment: Insecticidal activity against first-instar larval stage of Leptinotarsa decemlineata infested potato leaves assessed as mortality at 20 mg after 48 hr relative to control; type: functional
[5] = test system: Leptinotarsa decemlineata; experiment: Insecticidal activity against adult Leptinotarsa decemlineata infested potato leaves assessed as mortality at 10 mg after 24 hr relative to control; type: functional
[6] = test system: Leptinotarsa decemlineata; experiment: Insecticidal activity against first-instar larval stage of Leptinotarsa decemlineata infested potato leaves assessed as mortality at 10 mg after 24 hr relative to control; type: functional
[7] = test system: Leptinotarsa decemlineata; type: functional, Instar larval stage; remark: listed apart in the source
[8] = test system: Leptinotarsa decemlineata; experiment: Insecticidal activity against adult Leptinotarsa decemlineata infested potato leaves assessed as mortality at 10 mg after 48 hr relative to control; type: functional
[9] = test system: Leptinotarsa decemlineata; type: functional, Instar larval stage; remark: listed apart in the source
[10] = test system: Leptinotarsa decemlineata; type: functional, Instar larval stage; remark: listed apart in the source
[11] = test system: Leptinotarsa decemlineata; type: functional, Instar larval stage; remark: listed apart in the source
[12] = test system: Leptinotarsa decemlineata; experiment: Insecticidal activity against first-instar larval stage of Leptinotarsa decemlineata infested potato leaves assessed as mortality at 10 mg after 48 hr relative to control; type: functional
[13] = test system: Leptinotarsa decemlineata; experiment: Insecticidal activity against third-instar larval stage of Leptinotarsa decemlineata infested potato leaves assessed as mortality at 10 mg after 12 hr relative to control; type: functional
[14] = test system: Leptinotarsa decemlineata; type: functional, Instar larval stage; remark: listed apart in the source
[15] = test system: Leptinotarsa decemlineata; experiment: Insecticidal activity against adult Leptinotarsa decemlineata infested potato leaves assessed as mortality at 10 mg after 96 hr relative to control; type: functional
[16] = test system: Leptinotarsa decemlineata; experiment: Insecticidal activity against adult Leptinotarsa decemlineata infested potato leaves assessed as mortality at 20 mg after 48 hr relative to control; type: functional
[17] = test system: Leptinotarsa decemlineata; experiment: Insecticidal activity against first-instar larval stage of Leptinotarsa decemlineata infested potato leaves assessed as mortality at 20 mg after 12 hr relative to control; type: functional
[18] = test system: Leptinotarsa decemlineata; experiment: Insecticidal activity against second-instar larval stage of Leptinotarsa decemlineata infested potato leaves assessed as mortality at 10 mg after 12 hr relative to control; type: functional
[19] = test system: Leptinotarsa decemlineata; experiment: Insecticidal activity against adult Leptinotarsa decemlineata infested potato leaves assessed as mortality at 10 mg after 12 hr relative to control; type: functional
[20] = test system: Leptinotarsa decemlineata; type: functional, Instar larval stage; remark: listed apart in the source
[21] = test system: Leptinotarsa decemlineata; type: functional, Instar larval stage; remark: listed apart in the source
[22] = test system: Leptinotarsa decemlineata; type: functional, Instar larval stage; remark: listed apart in the source
[23] = test system: Leptinotarsa decemlineata; experiment: Insecticidal activity against first-instar larval stage of Leptinotarsa decemlineata infested potato leaves assessed as mortality at 20 mg after 24 hr relative to control; type: functional
[24] = test system: Leptinotarsa decemlineata; experiment: Insecticidal activity against third-instar larval stage of Leptinotarsa decemlineata infested potato leaves assessed as mortality at 10 mg after 24 hr relative to control; type: functional
[25] = test system: Leptinotarsa decemlineata; experiment: Insecticidal activity against first-instar larval stage of Leptinotarsa decemlineata infested potato leaves assessed as mortality at 10 mg after 96 hr relative to control; type: functional
[26] = test system: Leptinotarsa decemlineata; experiment: Insecticidal activity against second-instar larval stage of Leptinotarsa decemlineata infested potato leaves assessed as mortality at 20 mg after 12 hr relative to control; type: functional
[27] = test system: Leptinotarsa decemlineata; experiment: Insecticidal activity against adult Leptinotarsa decemlineata infested potato leaves assessed as mortality at 20 mg after 12 hr relative to control; type: functional
[28] = test system: Leptinotarsa decemlineata; experiment: Insecticidal activity against third-instar larval stage of Leptinotarsa decemlineata infested potato leaves assessed as mortality at 20 mg after 12 hr relative to control; type: functional
[29] = test system: Leptinotarsa decemlineata; experiment: Insecticidal activity against third-instar larval stage of Leptinotarsa decemlineata infested potato leaves assessed as mortality at 20 mg after 24 hr relative to control; type: functional
[30] = test system: Leptinotarsa decemlineata; experiment: Insecticidal activity against first-instar larval stage of Leptinotarsa decemlineata infested potato leaves assessed as mortality at 20 mg after 96 hr relative to control; type: functional
[31] = test system: Leptinotarsa decemlineata; type: functional, Instar larval stage; remark: listed apart in the source
[32] = test system: Leptinotarsa decemlineata; experiment: Insecticidal activity against adult Leptinotarsa decemlineata infested potato leaves assessed as mortality at 20 mg after 24 hr relative to control; type: functional
[33] = test system: Leptinotarsa decemlineata; experiment: Insecticidal activity against first-instar larval stage of Leptinotarsa decemlineata infested potato leaves assessed as mortality at 20 ul after 24 hr relative to control; type: functional
[34] = test system: Leptinotarsa decemlineata; experiment: Insecticidal activity against adult Leptinotarsa decemlineata infested potato leaves assessed as mortality at 10 ul after 48 hr relative to control; type: functional
[35] = test system: Leptinotarsa decemlineata; experiment: Insecticidal activity against adult Leptinotarsa decemlineata infested potato leaves assessed as mortality at 10 ul after 96 hr relative to control; type: functional
[36] = test system: Leptinotarsa decemlineata; experiment: Insecticidal activity against first-instar larval stage of Leptinotarsa decemlineata infested potato leaves assessed as mortality at 10 ul after 24 hr relative to control; type: functional
[37] = test system: Leptinotarsa decemlineata; experiment: Insecticidal activity against second-instar larval stage of Leptinotarsa decemlineata infested potato leaves assessed as mortality at 20 ul after 48 hr (reference value: 3.3 +/- 3.3%); type: functional
[38] = test system: Leptinotarsa decemlineata; experiment: Insecticidal activity against adult Leptinotarsa decemlineata infested potato leaves assessed as mortality at 10 ul after 12 hr relative to control; type: functional
[39] = test system: Leptinotarsa decemlineata; experiment: Insecticidal activity against adult Leptinotarsa decemlineata infested potato leaves assessed as mortality at 20 ul after 48 hr relative to control; type: functional
[40] = test system: Leptinotarsa decemlineata; experiment: Insecticidal activity against third-instar larval stage of Leptinotarsa decemlineata infested potato leaves assessed as mortality at 20 ul after 48 hr (reference value: 3.3 +/- 3.3%); type: functional
[41] = test system: Leptinotarsa decemlineata; experiment: Insecticidal activity against first-instar larval stage of Leptinotarsa decemlineata infested potato leaves assessed as mortality at 20 ul after 96 hr relative to control; type: functional
[42] = test system: Leptinotarsa decemlineata; experiment: Insecticidal activity against third-instar larval stage of Leptinotarsa decemlineata infested potato leaves assessed as mortality at 20 ul after 12 hr relative to control; type: functional
[43] = test system: Leptinotarsa decemlineata; experiment: Insecticidal activity against adult Leptinotarsa decemlineata infested potato leaves assessed as mortality at 20 ul after 12 hr relative to control; type: functional
[44] = test system: Leptinotarsa decemlineata; experiment: Insecticidal activity against second-instar larval stage of Leptinotarsa decemlineata infested potato leaves assessed as mortality at 20 ul after 12 hr relative to control; type: functional
[45] = test system: Leptinotarsa decemlineata; experiment: Insecticidal activity against third-instar larval stage of Leptinotarsa decemlineata infested potato leaves assessed as mortality at 10 ul after 24 hr relative to control; type: functional
[46] = test system: Leptinotarsa decemlineata; experiment: Insecticidal activity against first-instar larval stage of Leptinotarsa decemlineata infested potato leaves assessed as mortality at 20 ul after 48 hr relative to control; type: functional
[47] = test system: Leptinotarsa decemlineata; experiment: Insecticidal activity against second-instar larval stage of Leptinotarsa decemlineata infested potato leaves assessed as mortality at 10 ul after 12 hr relative to control; type: functional
[48] = test system: Leptinotarsa decemlineata; experiment: Insecticidal activity against third-instar larval stage of Leptinotarsa decemlineata infested potato leaves assessed as mortality at 10 ul after 48 hr (reference value: 3.3 +/- 3.3%); type: functional
[49] = test system: Leptinotarsa decemlineata; experiment: Insecticidal activity against third-instar larval stage of Leptinotarsa decemlineata infested potato leaves assessed as mortality at 10 ul after 12 hr relative to control; type: functional
[50] = test system: Leptinotarsa decemlineata; experiment: Insecticidal activity against second-instar larval stage of Leptinotarsa decemlineata infested potato leaves assessed as mortality at 10 ul after 24 hr (reference value: 3.3 +/- 3.3%); type: functional
[51] = test system: Leptinotarsa decemlineata; experiment: Insecticidal activity against adult Leptinotarsa decemlineata infested potato leaves assessed as mortality at 20 ul after 96 hr relative to control; type: functional
[52] = test system: Leptinotarsa decemlineata; experiment: Insecticidal activity against third-instar larval stage of Leptinotarsa decemlineata infested potato leaves assessed as mortality at 20 ul after 96 hr (reference value: 3.3 +/- 3.3%); type: functional
[53] = test system: Leptinotarsa decemlineata; experiment: Insecticidal activity against first-instar larval stage of Leptinotarsa decemlineata infested potato leaves assessed as mortality at 20 ul after 12 hr relative to control; type: functional
[54] = test system: Leptinotarsa decemlineata; experiment: Insecticidal activity against second-instar larval stage of Leptinotarsa decemlineata infested potato leaves assessed as mortality at 20 ul after 96 hr (reference value: 3.3 +/- 3.3%); type: functional
[55] = test system: Leptinotarsa decemlineata; experiment: Insecticidal activity against first-instar larval stage of Leptinotarsa decemlineata infested potato leaves assessed as mortality at 10 ul after 96 hr relative to control; type: functional
[56] = test system: Leptinotarsa decemlineata; experiment: Insecticidal activity against second-instar larval stage of Leptinotarsa decemlineata infested potato leaves assessed as mortality at 20 ul after 24 hr (reference value: 3.3 +/- 3.3%); type: functional
[57] = test system: Leptinotarsa decemlineata; experiment: Insecticidal activity against second-instar larval stage of Leptinotarsa decemlineata infested potato leaves assessed as mortality at 10 ul after 48 hr (reference value: 3.3 +/- 3.3%); type: functional
[58] = test system: Leptinotarsa decemlineata; experiment: Insecticidal activity against adult Leptinotarsa decemlineata infested potato leaves assessed as mortality at 10 ul after 24 hr relative to control; type: functional
[59] = test system: Leptinotarsa decemlineata; experiment: Insecticidal activity against adult Leptinotarsa decemlineata infested potato leaves assessed as mortality at 20 ul after 24 hr relative to control; type: functional
[60] = test system: Leptinotarsa decemlineata; experiment: Insecticidal activity against first-instar larval stage of Leptinotarsa decemlineata infested potato leaves assessed as mortality at 10 ul after 48 hr relative to control; type: functional
[61] = test system: Leptinotarsa decemlineata; experiment: Insecticidal activity against first-instar larval stage of Leptinotarsa decemlineata infested potato leaves assessed as mortality at 10 ul after 12 hr relative to control; type: functional
[62] = test system: Leptinotarsa decemlineata; experiment: Insecticidal activity against third-instar larval stage of Leptinotarsa decemlineata infested potato leaves assessed as mortality at 10 ul after 96 hr (reference value: 3.3 +/- 3.3%); type: functional
[63] = test system: Leptinotarsa decemlineata; experiment: Insecticidal activity against second-instar larval stage of Leptinotarsa decemlineata infested potato leaves assessed as mortality at 10 ul after 96 hr (reference value: 3.3 +/- 3.3%); type: functional
[64] = test system: Leptinotarsa decemlineata; experiment: Insecticidal activity against third-instar larval stage of Leptinotarsa decemlineata infested potato leaves assessed as mortality at 20 ul after 24 hr relative to control; type: functional

SMILES: CC12CCC(CC1=O)C2(C)C (stereo not drawn) [CAMPHOR]
- mortality [1]: 0%
- mortality [2]: 6.7%
- mortality [3]: 93.3%
- mortality [4]: 86.7%
- mortality [5]: 0%
- mortality [6]: 0%
- mortality [7]: 6.7%
- mortality [8]: 36.7%
- mortality [9]: 83.3%
- mortality [10]: 70%
- mortality [11]: 86.7%
- mortality [12]: 23.3%
- mortality [13]: 0%
- mortality [14]: 33.3%
- mortality [15]: 56.7%
- mortality [16]: 43.3%
- mortality [17]: 30%
- mortality [18]: 13.3%
- mortality [19]: 0%
- mortality [20]: 36.7%
- mortality [21]: 86.7%
- mortality [22]: 63.3%
- mortality [23]: 53.3%
- mortality [24]: 0%
- mortality [25]: 76.7%
- mortality [26]: 36.7%
- mortality [27]: 6.7%
- mortality [28]: 26.7%
- mortality [29]: 30%
- mortality [30]: 86.7%
- mortality [31]: 46.7%
- mortality [32]: 13.3%

SMILES: C=C1C2CCC(C2)C1(C)C (stereo not drawn) [CAMPHENE]
- mortality [1]: 0%
- mortality [2]: 10%
- mortality [3]: 76.7%
- mortality [4]: 23.3%
- mortality [5]: 13.3%
- mortality [6]: 0%
- mortality [7]: 6.7%
- mortality [8]: 13.3%
- mortality [12]: 6.7%
- mortality [13]: 0%
- mortality [14]: 46.7%
- mortality [15]: 13.3%
- mortality [16]: 76.7%
- mortality [17]: 13.3%
- mortality [19]: 6.7%
- mortality [20]: 50%
- mortality [23]: 23.3%
- mortality [24]: 0%
- mortality [25]: 10%
- mortality [27]: 30%
- mortality [28]: 16.7%
- mortality [29]: 43.3%
- mortality [30]: 26.7%
- mortality [32]: 73.3%

SMILES: C=CC(C)CCC=C(C)C (stereo not drawn) [BETA-CITRONELLENE]
- mortality [33]: 100%
- mortality [34]: 73.3%
- mortality [35]: 76.7%
- mortality [36]: 86.7%
- mortality [37]: 100%
- mortality [38]: 40%
- mortality [39]: 83.3%
- mortality [40]: 93.3%
- mortality [41]: 100%
- mortality [42]: 50%
- mortality [43]: 53.3%
- mortality [44]: 66.7%
- mortality [45]: 93.3%
- mortality [46]: 100%
- mortality [47]: 43.3%
- mortality [48]: 100%
- mortality [49]: 80%
- mortality [50]: 96.7%
- mortality [51]: 90%
- mortality [52]: 93.3%
- mortality [53]: 76.7%
- mortality [54]: 100%
- mortality [55]: 100%
- mortality [56]: 100%
- mortality [57]: 100%
- mortality [58]: 73.3%
- mortality [59]: 76.7%
- mortality [60]: 100%
- mortality [61]: 30%
- mortality [62]: 100%
- mortality [63]: 100%
- mortality [64]: 80%
